Laboratory results: PubChem BioAssay (NCI)
In brackets after ≈: the same amount, converted by molar mass.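 Where inhibition never reached the appropriate level, the endpoint shown equals the highest concentration tested. Otherwise, values were interpolated linearly from a five-concentration, 48-hour dose response in 96-well plates. GI50 marks 50% less growth. TGI: concentration producing complete growth inhibition.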

Experiments:
Assay in all cases: inhibition of tumour cell growth, NCI panel, 48 h
NCI-H226 lung = test system: NCI-H226 lung
HCT-15 colon = test system: HCT-15 colon
NCI-H460 lung = test system: NCI-H460 lung
TK-10 renal = test system: TK-10 renal
SN12C renal = test system: SN12C renal
COLO 205 colon = test system: COLO 205 colon
A549 NSCLC = test system: A549 NSCLC
OVCAR-5 ovarian = test system: OVCAR-5 ovarian
U251 CNS = test system: U251 CNS
UACC-257 melanoma = test system: UACC-257 melanoma

Compound | TGI (NCI-H226 lung) | TGI (HCT-15 colon) | TGI (NCI-H460 lung) | TGI (TK-10 renal) | TGI (SN12C renal) | TGI (COLO 205 colon) | TGI (A549 NSCLC) | TGI (OVCAR-5 ovarian) | TGI (U251 CNS) | TGI (UACC-257 melanoma) | GI50 (COLO 205 colon) | GI50 (A549 NSCLC) | GI50 (HCT-15 colon) | GI50 (U251 CNS) | GI50 (NCI-H460 lung) | GI50 (UACC-257 melanoma) | GI50 (TK-10 renal) | GI50 (SN12C renal) | GI50 (OVCAR-5 ovarian)
O=C1CC2CC3OC3[C@H]3c4cc5c(cc4C(=O)N1C23)OCO5 (stereo not given in full) | > 100 µM | > 100 µM | > 100 µM | > 100 µM | > 100 µM | > 100 µM | > 100 µM | > 100 µM | – | – | – | – | – | – | – | – | – | – | –
O=C(N/N=C/c1cc(Cl)cc(Cl)c1[O-])c1ccccc1O.O=C(N/N=C/c1cc(Cl)cc(Cl)c1[O-])c1ccccc1O.[Co+2] | 4.1 µM | 13.8 µM | 11.1 µM | 12 µM | – | 18.3 µM | 13.2 µM | 6.27 µM | 3.73 µM | 14.6 µM | 3.8 µM | 0.532 µM | – | – | – | – | – | – | –
CCP(=O)(CC)C(Cl)Cl | > 100 µM | > 100 µM | > 100 µM | > 100 µM | > 100 µM | > 100 µM | > 100 µM | > 100 µM | > 100 µM | > 100 µM | – | – | – | – | – | – | – | – | –
CC(=O)Nc1ccc(C(=O)NN2C(=O)C(Cl)/C2=C/c2ccco2)cc1 (stereo not given) | > 100 µM | – | > 100 µM | > 100 µM | – | > 100 µM | > 100 µM | > 100 µM | > 100 µM | > 100 µM | – | – | – | – | – | – | – | – | –
CC(=O)c1c(C)nc(SSc2nc(C)c(C(C)=O)c(-c3ccc(Cl)cc3)c2C#N)c(C#N)c1-c1ccc(Cl)cc1 | – | > 150 µg/mL | > 150 µg/mL | > 150 µg/mL | 15 µg/mL | > 150 µg/mL | > 150 µg/mL | > 150 µg/mL | > 150 µg/mL | > 150 µg/mL | > 150 µg/mL | 73 µg/mL | > 150 µg/mL | 53.6 µg/mL (≈ 88.8 µM) | 136 µg/mL (≈ 225 µM) | > 150 µg/mL | 102 µg/mL (≈ 170 µM) | 15 µg/mL (≈ 24.9 µM) | > 150 µg/mL
